Experimental findings from paper PMC4022671, “Characterization of Mannitol-2-Dehydrogenase in Saccharina japonica: Evidence for a New Polyol-Specific Long-Chain Dehydrogenases/Reductase” (PLoS ONE, 2014) are described below.

This assay deals with T1, SjM2DH (mannitol-2-dehydrogenase) (Saccharina japonica, UniProt R9UHL6).
T1 construct: assayed in cell-free extract
Description: NADH depletion at OD340, crude E. coli extract with recombinant enzyme. As to conditions: NADH 1 mM, fructose 100 mM, 100 mM Tris-HCl pH 7.5, 35 °C. The class given is biochemical.

T1 sequence (R9UHL6 entry or part of it): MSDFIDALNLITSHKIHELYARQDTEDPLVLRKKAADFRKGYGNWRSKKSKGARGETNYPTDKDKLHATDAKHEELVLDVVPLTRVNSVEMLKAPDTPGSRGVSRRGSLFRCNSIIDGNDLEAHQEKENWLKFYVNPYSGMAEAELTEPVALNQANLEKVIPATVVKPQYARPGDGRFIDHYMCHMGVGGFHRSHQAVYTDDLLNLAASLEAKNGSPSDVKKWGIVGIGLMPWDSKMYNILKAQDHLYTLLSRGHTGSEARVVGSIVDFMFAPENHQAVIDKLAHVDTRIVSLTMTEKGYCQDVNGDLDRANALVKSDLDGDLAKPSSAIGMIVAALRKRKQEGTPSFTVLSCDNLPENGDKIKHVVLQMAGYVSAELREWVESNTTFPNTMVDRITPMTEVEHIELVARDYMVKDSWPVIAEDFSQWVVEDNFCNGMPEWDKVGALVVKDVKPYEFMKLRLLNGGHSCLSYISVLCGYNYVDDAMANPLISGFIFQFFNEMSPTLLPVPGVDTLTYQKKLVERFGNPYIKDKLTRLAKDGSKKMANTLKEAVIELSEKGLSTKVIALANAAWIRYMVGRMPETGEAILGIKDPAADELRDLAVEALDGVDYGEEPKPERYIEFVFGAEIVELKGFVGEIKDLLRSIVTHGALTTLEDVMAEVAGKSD

As to `NC(=O)C1=CN([C@@H]2O[C@H](COP(=O)(O)OP(=O)(O)OC[C@H]3O[C@@H](n4cnc5c(N)ncnc54)[C@H](O)[C@@H]3O)[C@@H](O)[C@H]2O)C=CC1` [NADH], the “NADH depletion at OD340, crude E. coli extract with recombinant enzyme” value is on record as “reduction of fructose by recombinant SjM2DH exclusively uses NADH as cofactor”. In the case of `OCC1(O)OC[C@@H](O)[C@@H](O)[C@@H]1O` (stereo partly drawn) [D-fructose], the “NADH depletion at OD340, crude E. coli extract with recombinant enzyme” value was “When D-fructose was applied as the substrate, a depletion of NADH was detected”.
